Reference: patent publication US6361981B1, “Production of ammonium acrylate” (Ciba Specialty Chemicals Water Treatments Limited, priority 1995, dated 2002)

Tests used:
[1] = tested on: nitrilase enzyme discussed in Biotech and Appl Biochem 11, 581 to 601 (1989); conditions: literature value; read-out: Km for acrylonitrile; cited from earlier work
[2] = tested on: nitrilase, a preferred enzyme on which initial experiments were conducted (particularly preferred enzyme: Rhodococcus rhodochrous NCIMB 40757); experiment: Km, Ki of preferred nitrilase in whole cell form (Michaelis-Menten kinetics); format: biochemical
Procedure: The enzyme must have Km for (meth) acrylonitrile, that is whichever of acrylonitrile and (meth) acrylonitrile is being converted, below 500 μm and Ki for ammonium acrylate or ammonium (meth) acrylate, whichever is being produced, above 100,000 μM. In this specification Km and Ki are measured under conditions in which the enzyme obeys Michaelis-Menten kinetics, in particular at pH 7. A preferred measurement technique uses enzyme in whole cell form in 50 mM sodium phosphate buffer at pH 7 and 30° C. and using concentrations of acrylonitrile from 0.01 to 0.5 mM (for Km) and using 1.2 M ammonium acrylate and 0.079 to 0.554 mM acrylonitrile (for Ki).

[3] = tested on: R rhodochrous K22 nitrilase; conditions: literature value; read-out: Km for acrylonitrile; cited from earlier work

## C=CC#N [acrylonitrile]
[1]
  Km: 17000 µM
[2]; whole cell form, preferred technique: 50 mM sodium phosphate buffer, pH 7, 30° C., acrylonitrile 0.01 to 0.5 mM
  Km: 30.6 µM
[3]
  Km: 1140 µM

## C=CC(=O)O [ammonium acrylate]
[2]; Ki for ammonium acrylate / Km for acrylonitrile
  ratio Ki/Km: greater than 10,000
